Converted amounts (≈) assume the structure as drawn.
How the values were obtained:
[1] = tested on: Desulfovibrio desulfuricans; test: Sulfate Reducing Bacteria In Vitro Test; assay type: cell-based; conditions: Sulfate API broth with tryptone, anaerobic, room temperature, 3 to 5 days, read-out: minimum inhibitory concentration necessary to control the organism
Experimental: This test measures the bactericidal properties of a compound when in contact with a sulfate reducing bacteria, specifically Desulfovibrio desulfuricans. The test is conducted by dissolving the test compound in acetone to give an 0.5% solution. This toxicant is added to vials containing sterile Sulfate API broth with tryptone under anaerobic conditions at such levels to give final toxicant concentrations of 1, 5, 10 and 50 ug/ml. of solution. An inoculant solution of 0.5 ml. of the growing organism, Desulfovibrio desulfuricans, is added to the vials followed by sufficient sterile distilled water to give a total of 10 ml. of solution in the vials. The vials are incubated at room temperature for 3 to 5 days until untreated controls show growth of the organism as indicated by the black color development in the vials. The following is a summary of the minimum inhibitory concentration necessary to control the organism.

Staphylococcus aureus [2] = test: Staphylococcus Aureus Use Dilution Test; assay type: cell-based; conditions: Tryptic Soy Broth, 24 hours, 37° C, read-out: Minimum Inhibitory Concentration
Experimental: This test measures the bacteriostatic effectiveness of a particular test compound against Staphylococcus aureus. Tryptic Soy Broth is dispensed aseptically into sterile 13 × 100 mm. clear glass culture tubes. The first tube receives 3.6 ml. of medium and tubes 2 through 10 receive 2.0 ml. of medium. The test compound is dissolved in acetone to give 10 ml. of a solution of 0.10% of the test compound. Using a sterile syringe, 0.4 ml. of the test compound solution is placed in the first tube containing the 3.6 ml. of sterile broth and mixed thoroughly. This operation is continued through to the tenth tube. From the tenth tube, 2.0 ml. of solution is removed and discarded. Each tube is then innoculated with 0.1 ml. of a 24 hour culture of Staphylococcus aureus in Tryptic Soy Broth, and the mixture is mixed thoroughly using a Vortex mixer. A control is also set up to be sure that the inoculum is viable using a tube of sterile broth containing no added toxicant. The tubes are incubated for 24 hours at 37° C. The tubes are then examined to determine growth of the organism in the culture tubes. The minimum concentration in which no growth of the organism occurs is recorded. The following table gives the minimum inhibitory concentration necessary to control the organism: […]

Phoma herbarum = test: Biocide Testing Procedure (malt extract broth); assay type: cell-based; conditions: 168 h, one week, read-out: lowest concentration which provides 50% inhibition of growth
Experimental: Biocide Testing Procedure Tubes of sterilized nutrient and malt extract broth are prepared. Aliquots of the toxicant, dissolved in an appropriate solvent, are injected through the stopper, into the broth, to provide concentrations ranging from 50 ppm downward. The test organism is a fungus, Phoma herbarum. Three drops of a spore suspension of the fungus are injected into the tubes of malt broth. One week later the growth of the organism is observed and effectiveness of the chemical is recorded as the lowest concentration in ppm which provides 50% inhibition of growth as compared to untreated inoculated tube.

[3] = tested on: Two-spotted Mite (2-SM) Tetranychus urticae (Koch); test: Plant Dip Assay on Two-Spotted Mite, 2-SM PE; assay type: in vivo; conditions: infested Pinto Bean plants dipped 2-3 seconds, mortality after seven days, adult mites
Source text: The Two-spotted Mite (2-SM) Tetranychus urticae (Koch) is subjected to evaluation tests for miticidal activity. Plant Dip Assay on Two-Spotted Mite [Tetranychus urticae (Koch)] Pinto Bean plants (Phaseolus sp.) approximately 10 cm tall, are transplanted into sandy loam soil in 3 inch clay pots and thoroughly infested with two-spotted mites of mixed ages and sexes. Twenty-four hours later the infested plants are inverted and dipped for 2-3 seconds in 50-50 acetone-water solutions of the test chemicals. Treated plants are held in the greenhouse, and seven days later mortality is determined for both the adult mites and the nymphs hatching from eggs which were on the plants at the time of treatment. Test concentrations range from 0.05% down to that at which 50% mortality occurs. The values obtained in this test are found in Table VII under the Columns 2SM-PE and 2SM-Eggs.

[4] = tested on: Trichophyton mentagrophytes; test: In Vitro Agar Screening Tests (Example 4); assay type: cell-based; conditions: Emmons agar, 30° C, partial control at this concentration, read-out: Minimum Inhibitory Concentration
Experimental: (§1) This test measures the bactericidal, fungicidal and algaecidal properties of a compound when in contact with growing bacteria, fungi or algae in an artificial medium. The test is conducted by adding 20 ml. portions of a suitable warm sterile agar solution into 20 × 100 Petri dishes. Then, the text compound, in 0.5% acetone solution, is added to the Petri dishes at levels of 1, 5, 10 and 50 μg/ml. and mixed with the warm mobile agar solution. The treated agar mixture is then allowed to come to room temperature and solidify. Cells of the chosen organism are streaked on the surface of the solidified agar and are then incubated for such lengths of time that untreated samples containing no toxicant show luxurious growth typical of the particular organism. This time varies from 24 hours to one week depending on the particular organism. The fungi are incubated at 30° C and the bacteria are incubated at 37° C. The algae are incubated at room temperature under artificial light. Nutrient agar is used as the medium in this test for the bacteria. Potato dextrose agar is used as the medium for the fungi with the exception of Trichophyton mentagrophytes for which Emmons agar is used. A modified Jack Meyers agar is used for the growth of the algae.
(§2) The extent of growth is noted at the end of the incubation period.

Bacillus cereus = test: In Vitro Agar Screening Tests (Example 4); assay type: cell-based; conditions: nutrient agar, 37° C, read-out: Minimum Inhibitory Concentration
Experimental: as §1, §2

Trichoderma sp. = test: In Vitro Agar Screening Tests (Example 4); assay type: cell-based; conditions: potato dextrose agar, 30° C, partial control at this concentration, read-out: Minimum Inhibitory Concentration
Experimental: as §1, §2

Chlorella pyrenoidosa = test: In Vitro Agar Screening Tests (Example 4); assay type: cell-based; conditions: Auxenochlorella pyrenoidosa, modified Jack Meyers agar, room temperature, artificial light, read-out: Minimum Inhibitory Concentration
Experimental: as §1, §2

Pencillium ochra-chloron = test: In Vitro Agar Screening Tests (Example 4); assay type: cell-based; conditions: potato dextrose agar, 30° C, partial control at this concentration, read-out: Minimum Inhibitory Concentration
Experimental: as §1, §2

Pencillium vermiculatum = test: In Vitro Agar Screening Tests (Example 4); assay type: cell-based; conditions: potato dextrose agar, 30° C, read-out: Minimum Inhibitory Concentration
Experimental: as §1, §2

Rhizopus stolonifer = test: In Vitro Agar Screening Tests (Example 4); assay type: cell-based; conditions: potato dextrose agar, 30° C, partial control at this concentration, read-out: Minimum Inhibitory Concentration
Experimental: as §1, §2

[5] = tested on: Brevibacterium ammoniagenes; test: In Vitro Agar Screening Tests (Example 4); assay type: cell-based; conditions: Corynebacterium ammoniagenes, nutrient agar, 37° C, read-out: Minimum Inhibitory Concentration
Experimental: as §1, §2

Pseudomonas fluorescens = test: In Vitro Agar Screening Tests (Example 4); assay type: cell-based; conditions: nutrient agar, 37° C, read-out: Minimum Inhibitory Concentration
Experimental: as §1, §2

Pseudomonas aeruginosa = test: In Vitro Agar Screening Tests (Example 4); assay type: cell-based; conditions: nutrient agar, 37° C, read-out: Minimum Inhibitory Concentration
Experimental: as §1, §2

Euglena gracilis = test: In Vitro Agar Screening Tests (Example 4); assay type: cell-based; conditions: modified Jack Meyers agar, room temperature, artificial light, read-out: Minimum Inhibitory Concentration
Experimental: as §1, §2

Scenedesmus obliquus = test: In Vitro Agar Screening Tests (Example 4); assay type: cell-based; conditions: Tetradesmus obliquus, modified Jack Meyers agar, room temperature, artificial light, read-out: Minimum Inhibitory Concentration
Experimental: as §1, §2

Aspergillus fumigatus = test: In Vitro Agar Screening Tests (Example 4); assay type: cell-based; conditions: potato dextrose agar, 30° C, read-out: Minimum Inhibitory Concentration
Experimental: as §1, §2

Escherichia coli = test: In Vitro Agar Screening Tests (Example 4); assay type: cell-based; conditions: nutrient agar, 37° C, read-out: Minimum Inhibitory Concentration
Experimental: as §1, §2

Pencillium expansum = test: In Vitro Agar Screening Tests (Example 4); assay type: cell-based; conditions: potato dextrose agar, 30° C, partial control at this concentration, read-out: Minimum Inhibitory Concentration
Experimental: as §1, §2

Enterobacter aerogenes = test: In Vitro Agar Screening Tests (Example 4); assay type: cell-based; conditions: Klebsiella aerogenes, nutrient agar, 37° C, read-out: Minimum Inhibitory Concentration
Experimental: as §1, §2

Aspergillus oryzae = test: In Vitro Agar Screening Tests (Example 4); assay type: cell-based; conditions: potato dextrose agar, 30° C, partial control at this concentration, read-out: Minimum Inhibitory Concentration
Experimental: as §1, §2

Staphylococcus aureus [6] = test: In Vitro Agar Screening Tests (Example 4); assay type: cell-based; conditions: nutrient agar, 37° C, read-out: Minimum Inhibitory Concentration
Experimental: as §1, §2

Aspergillus niger = test: In Vitro Agar Screening Tests (Example 4); assay type: cell-based; conditions: potato dextrose agar, 30° C, read-out: Minimum Inhibitory Concentration
Experimental: as §1, §2

Penicillium italicum = test: In Vitro Agar Screening Tests (Example 4); assay type: cell-based; conditions: potato dextrose agar, 30° C, read-out: Minimum Inhibitory Concentration
Experimental: as §1, §2

- MIC [1]: 10 µg/mL (≈ 42.1 µM)
- MIC (Staphylococcus aureus [2]): 50 µg/mL (≈ 211 µM)
- MIC [4]: 10 µg/mL (≈ 42.1 µM)
- MIC (Bacillus cereus): > 50 µg/mL
- MIC (Trichoderma sp.): 10 µg/mL (≈ 42.1 µM)
- MIC (Chlorella pyrenoidosa): 1 µg/mL (≈ 4.21 µM)
- MIC (Pencillium ochra-chloron): 10 µg/mL (≈ 42.1 µM)
- MIC (Pencillium vermiculatum): 10 µg/mL (≈ 42.1 µM)
- MIC (Rhizopus stolonifer): 1 µg/mL (≈ 4.21 µM)
- MIC [5]: > 50 µg/mL
- MIC (Pseudomonas fluorescens): 50 µg/mL (≈ 211 µM)
- MIC (Pseudomonas aeruginosa): 50 µg/mL (≈ 211 µM)
- MIC (Euglena gracilis): 1 µg/mL (≈ 4.21 µM)
- MIC (Scenedesmus obliquus): 10 µg/mL (≈ 42.1 µM)
- MIC (Aspergillus fumigatus): 5 µg/mL (≈ 21.1 µM)
- MIC (Escherichia coli): 25 µg/mL (≈ 105 µM)
- MIC (Pencillium expansum): 5 µg/mL (≈ 21.1 µM)
- MIC (Enterobacter aerogenes): > 50 µg/mL
- MIC (Aspergillus oryzae): 1 µg/mL (≈ 4.21 µM)
- MIC (Staphylococcus aureus [6]): 5 µg/mL (≈ 21.1 µM)
- MIC (Aspergillus niger): 1 µg/mL (≈ 4.21 µM)
- MIC (Penicillium italicum): 1 µg/mL (≈ 4.21 µM)
Structure (SMILES): CCOCCOC(=S)SCSC#N [Compound 1]
- IC50 (Phoma herbarum): 5 µg/mL (≈ 21.1 µM)
- 2-SM PE: concentration at which 50% mortality occurs [3]: .03%

From patent publication US4078079A, “Thiocyano-xanthate miticides” (Stauffer Chemical Company, priority 1976, dated 1978)
